We go through 1 molecule from patent US6663897B2, “Oral itraconazole formulations and methods of making the same” (DSM IP Assets B.V., priority 2001, dated 2003).

Each structure is given as a SMILES string. A value given as a limit tells only on which side of the number the result lay.

Data set [1] in a line: Stability study under accelerated conditions (ICH guidelines). In kind it is physicochemical. The following applies: three months. As to the method:
The batch samples prepared under Example 1 were evaluated for stability under accelerated conditions under ICH guidelines and three months stability results are furnished in Table 4. Physical Examination Specification: Size 0 elongated hard gelatin capsule with an opaque white cap and a natural body. Capsules were substantially free from rough edges and spots and were filled with off white colored coated microcrystalline cellulose spheres.

The conditions of data set [2]: cited from earlier work.

`CCC(C)n1ncn(-c2ccc(N3CCN(c4ccc(OCC5COC(Cn6cncn6)(c6ccc(Cl)cc6Cl)O5)cc4)CC3)cc2)c1=O` (racemic) [Itraconazole, (±)-cis-4-[4-[4-[4-[[2-(2,4-dichlorophenyl)-2-(1H-1,2,4-triazol-1-ylmethyl)-1,3-dioxolan-4-yl]methoxy]phenyl]-1-piperazinyl]phenyl]-2,4-dihydro-2-(1-methylpropyl)-3H-1,2,4-triazol-3-one]: the degradation of itraconazole entry in data set [1] was “no significant degradation”. Besides, in data set [2] (0.1 N Hydrochloric acid), the “0.1 N Hydrochloric acid solubility” value is given as below 6 micrograms per milliliter. In addition, the water solubility entry in data set [2] (water) is given as “less than 1 microgram per milliliter”.
